# Measurements taken from patent US20030148963A1 (priority 2000, published 2003).
# Like-named read-outs stand apart in the source and are kept apart here. Marks after values point to notes of the source that are not given here.
# Legend:
# TNF-α [1] = type: cell-based; settings: spleen cells of mice given 12.5 mg/kg 4 days a week for 4 weeks; mean ± SEM, 4 mice
# IL-6 [2] = type: cell-based; settings: spleen cells of mice given 12.5 mg/kg 4 days a week for 4 weeks; mean ± SEM, 4 mice
# IFN-γ = test: Serum IFN-γ in CII immunized mice (ELISA); type: in vivo, B10.QxDBA/1 female mice; settings: serum at end of experiment, mean ± SEM
# Protocol: For quantification of serfu CII antibodies, 96-well plates (Nunc, Roskilde, Denmark) were coated overnight at 4° C. with 10 μg/ml of native CII. Standards and samples were diluted in 0.5% BSA-PBS. Biotinylated F(ab/)2 fragments of goat anti-mouse IgG (Jackson ImmunoResearch Laboratories, West Grove, Pa.) was used as secondary antibody. Development was performed using horseradish peroxidase 0.5 μg/ml and 2.5 mg of the enzyme substrate 2,2-azino-bis-(3-ethylbenzothiazoline sulfonic acid) (Sigma) per mal in citrate buffer (pH 4.2), containing 0.0075% H2O2. The absorbance was measured at 405 nm in a SPECTRAmax spectrophotometer (Molecular Devices, Calif.). IFN-γ levels in sera were quantified with an ELISA system previously described (13). Ninety-six well plates (Nunc) were coated with 2 μg/ml of rat anti-mouse IFN-γ mab (Pharmingen, San Diego, Calif.). Sera, recombinant IFN-γ (Genzyme, Cambridge, Mass.), biotinylated antibodies were all diluted in 0.05 M Tris pH 7.4+0.015 M NaCl. A biotinylated anti mouse IFN-γ antibody (2 μg/ml) (Pharmigen) was used as secondary antibody. After incubation with extravidin alkaline phosphatase 0.5 ?g/ml and alkaline phosphatase substrate 1 mg/ml (Sigma) the absorbance was measured at 405 nm. Interleukin 6 (IL-6) levels in serum and supernatants were measured by a bioassay using cell line B13.29, subclone B9, which is dependent on IL-6 for growth. […]
# IL-6 [3] = type: cell-based, NMRI mice; settings: 24 h supernatant
# spleen mononuclear cells = type: cell-based; settings: spleen cells of mice given 12.5 mg/kg 4 days a week for 4 weeks
# TNF-α [4] = test: Serum TNF-α in S. aureus infected mice (ELISA); type: in vivo, NMRI mice; settings: six days after 1.4×10^7 CFU S. aureus; 12.5 mg/kg from three days prior; mean ± SEM, n = 6
# Protocol: The levels of TNF.- were determined using sandwich enzyme-linked immunosorbent assays (ELISA) kit from R&D Systems Minneapolis, Minn.).
# [5] = etoposide 1 μM, mean ± SEM, four mice
smiles,measurement,setting,value
COc1cc([C@@H]2c3cc4c(cc3[C@@H](O[C@@H]3O[C@@H]5CO[C@@H](C)O[C@H]5[C@H](O)[C@H]3O)[C@H]3COC(=O)[C@H]23)OCO4)cc(OC)c1O [Etoposide],"TNF-α, Con A",TNF-α [1],6 ± 0.5^a) pg/ml
same,"TNF-α, TSST-1",TNF-α [1],6 ± 0.4^a) pg/ml
same,"IL-6, Con A",IL-6 [2],74 ± 15^a) pg/ml
same,"IL-6, TSST-1",IL-6 [2],10 ± 3 pg/mL
same,IFN-g,IFN-γ; Etoposide-pretreated,1848 ± 248^c u/ml
same,IFN-g,IFN-γ; Etoposide-treated (from day 40),2094 ± 199^b u/ml
same,"IL-6, ConA stimulated",IL-6 [3]; [5],825 ± 455 pg/mL
same,"IL-6, TSST-1 stimulated",IL-6 [3]; [5],45 ± 16b pg/ml
same,"IL-6, ConA stimulated",IL-6 [3]; etoposide 10 μM,<10^b pg/ml
same,"IL-6, TSST-1 stimulated",IL-6 [3]; etoposide 10 μM,<10^b pg/ml
same,"IL-6, ConA stimulated",IL-6 [3]; etoposide 100 μM,<10^b pg/ml
same,"IL-6, TSST-1 stimulated",IL-6 [3]; etoposide 100 μM,<10^b pg/ml
same,"Counts per minute (CPM), TSST-1",spleen mononuclear cells; first value of merged cell,1117 ± 26 CPM
same,"Counts per minute (CPM), Con A","spleen mononuclear cells; mean ± SEM, 4 mice",2183 ± 214^a) CPM
same,"Counts per minute (CPM), 0 (unstimulated)",spleen mononuclear cells; second value of merged cell,156 ± 9 CPM
same,Serum TNF-α,TNF-α [4],30 ± 12 pg/mL
